Earlier results, collected in EP0307115A1, “Phenol esters” (IMPERIAL CHEMICAL INDUSTRIES PLC, priority 1987, dated 1989).

Settings: dosed orally in man

O=C(NCCNCC(O)COc1ccc(O)cc1)N1CCOCC1 (racemic) [xamoterol, N-(2-[(RS)-2-hydroxy-3-(4-hydroxyphenoxy)-propylamino]ethyl)morpholine-4-carboxamide]
absorbed from the gastrointestinal tract, extent of the administered dose: 9-10%
